Experimental findings from patent US12186348B2, “Glycan strands and oligosaccharides derived from Streptococcus bacteria” (Meharry Medical College, priority 2018, dated 2025) are described below.

The test system of one series is MX2. The series is described as follows: MX2 expression in THP-1 cells (qRT-PCR, Western-blot). In kind it is cell-based, human. As to conditions: THP-1 cells, 50, 100, 200, 300 μg/ml, overnight (FIG. 8B). Here is the method:
(§1) To determine whether CC5Ap induces MX2 expression, THP-1 cells were treated with different doses (units) of CC5Ap for 16 hours. The THP-1 cells were obtained from the NIH AIDS Reagent Program. One unit of CC5Ap is defined as the amount of CC5Ap needed to induce a 3-fold increase in A3G mRNA expression over a period of 16 hours, using 5×10^5 THP-1 cells in 500 μl of cell culture medium. MX2 expression was measured by qRT-PCR. After treatment the cells were either subjected to measuring MX2 expression by Western-blot analyses or infected with HIV-1.
(§2) Synthetic G-M from Toronto Research Chemicals (Cat: A178230) was purchased. The synthetic G-M structure was confirmed by 1H NMR (D2O) and MS. Different doses of G-M were used to treat THP-1 cells. The THP-1 cells were obtained from the NIH AIDS Reagent Program. Specifically, 50 μg, 100 μg, 200 μg and 300 μg/ml G-M (shown in FIGS. 8A-8C as G-M 0.5, 1, 2, 3, respectively) were used to treat THP-1 cells. 1 unit CC5A A/E and CC5Ap were used as the controls. The cells were treated overnight. The mRNA levels of A3G and MX2 were measured by qRT-PCR.

The subject of a further series is HIV IIIB. The series is described as follows: HIV IIIB replication in THP-1 cells, nine days culture. In kind it is cell-based. As to conditions: THP-1 cells pre-treated 1 hour, qRT-PCR (FIG. 8C). As to the method: To determine whether G-M inhibits HIV IIIB replication, THP-1 cells were pre-treated 1 hour with G-M or CC5Ap. 100 ng […] content of IIIB was added into the cell culture to infect the cells overnight. Post-infection, cells were washed 2 times and cultured for nine days. The viral supernatant was subjected to qRT-PCR to measure viral release.
A general note: Quantitative PCR measures a nucleic acid by following its amplification.

A further series concerns THP-1 cells. Description: Cell number of G-M treated THP-1 samples. In kind it is cell-based, human.
The test system of the next series is A3G. Description: A3G mRNA expression in THP-1 cells by qRT-PCR. In kind it is cell-based, human. Here is the method:
Equal volumes of an S. cristatus CC5A whole cell extract (CC5A1E), fraction A (glycan strands and peptides), fraction B (glycan strands), and CC5Ap were used to treat THP-1 cells for 16 hours. THP-1 cell line is a human monocytic cell line derived from acute monocytic leukemia. The THP-1 cells were obtained from the NIH AIDS Reagent Program. qRT-PCR was used to detect the relative expression of A3G mRNA in THP-1 cells. PBS treated THP-1 cells were used as a control.
The cell wall of S. Mu was isolated from the bacteria and the isolated cell wall was subjected to the cell component isolation shown in FIG. 2A. Oligosaccharide molecules (from the same amount of bacteria) of CC5Ap and S. Mu were used to treat THP-1 cells. The THP-1 cells were obtained from the NIH AIDS Reagent Program. PBS and CC5A/E were used as the controls. A3G expression was measured by qRT-PCR.
as §1, §2

In series [1] the test system is Vpr-BlaM containing HIV NL4-3 virus. Description: HIV-1 viral entry assay (Vpr-BlaM, CCF2) in THP-1 cells. In kind it is cell-based. As to conditions: THP-1 cells pre-treated overnight, compared to untreated control (FIGS. 12, 14). From the text:
To determine whether the disclosed molecules have effects on HIV-1 viral entry, a sensitive and specific enzyme-based assay developed by Marielle et al (6) was used. THP-1 cells were pre-treated with AMD3100 (HIV entry inhibitor), CC5A/PBS (cell lysate of Streptococcus Cristatus CC5A), and different amounts of G-M (GlcNAc-MurNAc, which is a disaccharide molecule of glycan strain) overnight. PBS treated THP-1 cells were used as the untreated control. After washing, Vpr-BlaM containing HIV NL4-3 virus was used to infect the cells. After washing again, the cells were subjected to CCF2 staining overnight. The following day, the cells were analyzed by FACSAria III for CCF2 (green/FITC-A) and cleaved CCF2 (DAPI-A) florescence.
THP-1 cells were treated with CC5Ap and with cell lysate from Streptococcus Mutant (S. MuP). The protocol described in Example 10 was followed to test the effects of CC5Ap and S.MuP on HIV viral entry.

SMILES strings stand for the structures.

Take `CC(=O)N[C@H]1[C@H](O[C@H]2[C@H](O[C@H](C)C(=O)O)[C@@H](NC(C)=O)C(O)O[C@@H]2CO)O[C@H](CO)[C@@H](O)[C@@H]1O` (stereo partly drawn) [G-M, N-Acetyl-D-glucosamine-(1-4)-N-acetylmuramic acid]: the “MX2 mRNA expression” value in the series with MX2 is “enhanced A3G mRNA expression (FIG. 8A) and MX2 mRNA expression (FIG. 8B) in a dose-dependent manner”. Moreover, the “HIV IIIB replication (viral release)” value with HIV IIIB is listed as “inhibits HIV IIIB replication in a dose-dependent manner”. Besides, the “noticeable cell number difference between PBS and treated samples” value with THP-1 cells is “not observed”. In addition, the “experimentally determined activity of synthetic G-M” value with A3G (1 unit = amount inducing 3-fold A3G mRNA increase in 16 hours, 5×10^5 THP-1 cells in 500 μl) is on record as 0.005 units/μg. In addition, in the series with A3G (THP-1 cells, 50, 100, 200, 300 μg/ml, overnight (FIG. 8A)), the “A3G mRNA expression” value was “enhanced A3G mRNA expression (FIG. 8A) and MX2 mRNA expression (FIG. 8B) in a dose-dependent manner”. The “share of the total CC5Ap activity” value in the series with A3G (based on G-M concentration of CC5Ap prep (about 100 μg/mL) and activity of synthetic G-M) is “about 5%”. Moreover, the “relative HIV entry” value in series [1] is recorded as “reduced HIV entry dramatically”.
